Assay [1] concerns the target T1, NS5B proteins of HCV genotype 1b (Con1) (Hepatitis C virus genotype 1b, UniProt Q9WMX2).
T1 construct: Each untagged protein was expressed with an 18 amino acid C-terminal truncation to enhance the solubility; made in house; host or cells: E. coli BL21(DE3), pET21a
The assay is described as follows: HCV NS5B RdRp enzyme assay. The format is biochemical. The following applies: 1b enzyme. How it is done: HCVNS5B RdRp Cloning, Expression, and Purification.
The cDNA encoding NS5B proteins of HCV genotype 1b (Con1), a genotype 1b variant with amino acid 316 mutated from cysteine to asparagine, and genotype 2a (JFH-1), were cloned into the pET21a expression vector. Each untagged protein was expressed with an 18 amino acid C-terminal truncation to enhance the solubility. The E. coli competent cell line BL21(DE3) was used for expression of the protein. Cultures were grown at 37° C. for ˜4 hours until the cultures reached an optical density of 2.0 at 600 nm. The cultures were cooled to 20° C. and induced with 1 mM IPTG. Fresh ampicillin was added to a final concentration of 50 μg/mL and the cells were grown overnight at 20° C.
Cell pellets (3 L) were lysed for purification to yield 15-24 mgs of purified NS5B. The lysis buffer consisted of 20 mM Tris-HCl, pH 7.4, 500 mM NaCl, 0.5% triton X-100, 1 mM DTT, 1 mM EDTA, 20% glycerol, 0.5 mg/mL lysozyme, 10 mM MgCl2, 15 ug/mL deoxyribonuclease I, and Complete TM protease inhibitor tablets (Roche). After addition of the lysis buffer, frozen cell pellets were resuspended using a tissue homogenizer. To reduce the viscosity of the sample, aliquots of the lysate were sonicated on ice using a microtip attached to a Branson sonicator. The sonicated lysate was centrifuged at 100,000×g for 30 minutes at 4° C. and filtered through a 0.2 μm filter unit (Corning).
The protein was purified using two sequential chromatography steps: Heparin sepharose CL-6B and polyU sepharose 4B. The chromatography buffers were identical to the lysis buffer but contained no lysozyme, deoxyribonuclease I, MgCl2 or protease inhibitor and the NaCl concentration of the buffer was adjusted according to the requirements for charging the protein onto the column. Each column was eluted with a NaCl gradient which varied in length from 5-50 column volumes depending on the column type. After the final chromatography step, the resulting purity of the enzyme is >90% based on SDS-PAGE analysis. The enzyme was aliquoted and stored at −80° C.
HCVNS5B RdRp Enzyme Assay.
An on-bead solid phase homogeneous assay was used in a 384-well format to assess NS5B inhibitors (WangY-K, Rigat K, Roberts S, and Gao M (2006) Anal Biochem, 359: 106-111). The biotinylated oligo dT12 primer was captured on streptavidin-coupled imaging beads (GE, RPNQ0261) by mixing primer and beads in 1× buffer and incubating at room temperature for three hours. Unbound primer was removed after centrifugation. The primer-bound beads were resuspended in 3× reaction mix (20 mM Hepes buffer, pH 7.5, dT primer coupled beads, poly A template, ^3H-UTP, and RNAse inhibitor (Promega N2515)). Compounds were serially diluted 1:3 in DMSO and aliquoted into assay plates. Equal volumes (10 μL) of water, 3× reaction mix, and enzyme in 3× assay buffer (60 mM Hepes buffer, pH 7.5, 7.5 mM MgCl2, 7.5 mM KCl, 3 mM DTT, 0.03 mg/mL BSA, 6% glycerol) were added to the diluted compound on the assay plate. Final concentration of components in 384-well assay: 0.36 nM template, 15 nM primer, 0.29 μM ^3H-UTP (0.3 μCi), 1.6 U/μL RNAse inhibitor, 7 nM NS5B enzyme, 0.01 mg/mL BSA, 1 mM DTT, and 0.33 μg/μL beads, 20 mM Hepes buffer, pH 7.5, 2.5 mM MgCl2, 2.5 mM KCl, and 0.1% DMSO.
Reactions were allowed to proceed from 4 to 24 hours at 30° C. For 24 hour reactions, enzyme and inhibitors were pre-incubated for 24 hours before adding template and primer. Reactions were terminated by the addition of 50 mM EDTA (10 μL). After incubating for at least 15 minutes, plates were read on an Amersham LEADseeker multimodality imaging system.
IC50 values for compounds were determined using ten different [I]. IC50 values were calculated from the inhibition using the four-parameter logistic formula y=A+((B−A)/(1+((C/x)^D))), where A and B denote minimal and maximal % inhibition, respectively, C is the IC50, D is hill slope and x represents compound concentration.

In assay [2] the test system is genotype 1b (Con-1) HCV replicon in Huh-7 cells. Nature of the assay: HCV replicon luciferase assay. It counts as cell-based. The following applies: 1b replicon, Huh-7, Renilla luciferase, 3 days incubation. Summed up: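 Huh-7 cells carrying Con-1 genotype 1b replicon with Renilla luciferase reporter seeded onto titrated compound in DMEM, 4% FBS, 0.5% DMSO, 3 days at 37 °C. Luciferase read with EnduRen substrate (7.5 μM final) after ≥1 h; EC50 by four-parameter logistic fit.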
In general terms: In antiviral work, replicon cells carry a viral genome segment that copies itself.

The structures appear in SMILES notation.

The term IC50 denotes the midpoint of a concentration-inhibition curve. Low readings indicate greater potency, high ones weaker potency. What is called EC50 is the midpoint of the concentration-response curve.

T1 sequence (Q9WMX2 2420-2992): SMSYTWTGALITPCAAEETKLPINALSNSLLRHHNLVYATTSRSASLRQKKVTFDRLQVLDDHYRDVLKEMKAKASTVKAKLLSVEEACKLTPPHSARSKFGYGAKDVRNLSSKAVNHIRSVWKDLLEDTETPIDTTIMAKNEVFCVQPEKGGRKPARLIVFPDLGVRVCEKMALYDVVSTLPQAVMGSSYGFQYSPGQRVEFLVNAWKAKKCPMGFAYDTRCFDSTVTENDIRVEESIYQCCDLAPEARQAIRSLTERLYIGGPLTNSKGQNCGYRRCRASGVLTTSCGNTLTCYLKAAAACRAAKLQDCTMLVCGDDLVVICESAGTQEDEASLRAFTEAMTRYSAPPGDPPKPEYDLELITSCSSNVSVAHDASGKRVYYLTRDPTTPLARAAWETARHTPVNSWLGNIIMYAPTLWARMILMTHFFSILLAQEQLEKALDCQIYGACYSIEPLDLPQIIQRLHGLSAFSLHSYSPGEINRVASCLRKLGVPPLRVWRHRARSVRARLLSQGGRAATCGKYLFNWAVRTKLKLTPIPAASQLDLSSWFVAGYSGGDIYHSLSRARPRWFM

`CNC(=O)c1c(-c2ccc(F)cc2)oc2ccc(-c3cc(C(=O)NC4(c5ncccn5)CC(O)C4)cc(F)c3C)c(F)c12` (single isomer, unassigned) [Example 9b, 4-Fluoro-5-(3-fluoro-5-((3-hydroxy-1-(pyrimidin-2-yl)cyclobutyl)carbamoyl)-2-methylphenyl)-2-(4-fluorophenyl)-N-methylbenzofuran-3-carboxamide] gave an IC50 in assay [1] of 310 nM. In assay [2], this molecule registered a half-maximal effective concentration (EC50) of 300 nM.

The molecule `CNC(=O)c1c(-c2ccc(F)cc2)oc2ccc(-c3cc(C(=O)NC4(c5ncccn5)CC(O)C4)ccc3C)c(F)c12` (single isomer, unassigned) [Example 5a, 4-Fluoro-2-(4-fluorophenyl)-5-(5-((3-hydroxy-1-(pyrimidin-2-yl)cyclobutyl)carbamoyl)-2-methylphenyl)-N-methylbenzofuran-3-carboxamide] showed an IC50 in assay [1] of 1280 nM. The concentration giving a half-maximal response (EC50) in assay [2] turned out to be 3860 nM.

`CNC(=O)c1c(-c2ccc(F)cc2)oc2ccc(-c3cc(C(=O)NC4(c5ncccn5)CC(F)C4)ccc3C)c(F)c12` (centres unmarked) [Example 16, 4-Fluoro-5-(5-(3-fluoro-1-(pyrimidin-2-yl)cyclobutylcarbamoyl)-2-methylphenyl)-2-(4-fluorophenyl)-N-methylbenzofuran-3-carboxamide] had an IC50 in assay [1] of 30 nM. Further, the EC50 in assay [2] (Hepatitis C virus, Huh-7, 72 h) amounted to 6.62 nM.

Turning to `CNC(=O)c1c(-c2ccc(F)cc2)oc2ccc(-c3cc(C(=O)NC4(c5ncccn5)CC(OC)(OC)C4)cc(F)c3C)c(F)c12` [Example 8, 5-(5-(3,3-Dimethoxy-1-(pyrimidin-2-yl)cyclobutylcarbamoyl)-3-fluoro-2-methylphenyl)-4-fluoro-2-(4-fluorophenyl)-N-methylbenzofuran-3-carboxamide], inhibition in assay [1] was half-maximal at 40 nM (IC50). The molecule also displayed a half-maximal effective concentration (EC50) in assay [2] (Hepatitis C virus, Huh-7, 72 h) of 20 nM.

As to `CCOc1cc2oc(-c3ccc(F)cc3)c(C(=O)NC)c2cc1-c1ccc(OC)c(C(=O)NC2(c3ncccn3)CC(OC(F)F)C2)c1` (single isomer, unassigned) [Example 66b, 5-(3-((3-(Difluoromethoxy)-1-(pyrimidin-2-yl)cyclobutyl)carbamoyl)-4-methoxyphenyl)-6-ethoxy-2-(4-fluorophenyl)-N-methylbenzofuran-3-carboxamide], the IC50 in assay [1] came to 2.02 nM. Further, a half-maximal response in assay [2] (EC50) required 4.39 nM.

In the case of `CCCc1cc2oc(-c3ccc(F)cc3)c(C(=O)NC)c2cc1-c1ccc(F)c(C(=O)NC2(c3ncccn3)CC(OC(F)(F)F)C2)c1` (single isomer, unassigned) [Example 48b, 5-(4-Fluoro-3-((1-(pyrimidin-2-yl)-3-(trifluoromethoxy)cyclobutyl)carbamoyl)phenyl)-2-(4-fluorophenyl)-N-methyl-6-propylbenzofuran-3-carboxamide], in assay [1], the half-maximal inhibitory concentration (IC50) was 8.27 nM. In assay [2], this molecule gave an EC50 of 10 nM.

In the case of `CNC(=O)c1c(-c2ccc(F)cc2)oc2cc(CCC(F)(F)F)c(-c3cccc(C(=O)NC4(c5ncccn5)CC(OC(F)(F)F)C4)c3)cc12` (single isomer, unassigned) [Example 45b, 2-(4-Fluorophenyl)-N-methyl-5-(3-((1-(pyrimidin-2-yl)-3-(trifluoromethoxy)cyclobutyl)carbamoyl)phenyl)-6-(3,3,3-trifluoropropyl)benzofuran-3-carboxamide], the half-maximal inhibitory concentration (IC50) in assay [1] was 10 nM. This molecule registered an EC50 in assay [2] of 9.46 nM.

In the case of `CNC(=O)c1c(-c2ccc(F)cc2)oc2ccc(-c3cc(C(=O)NC4(c5ncccn5)CC(OC)C4)c(OC)cc3C)c(F)c12` (single isomer, unassigned) [Example 13b, 4-Fluoro-2-(4-fluorophenyl)-5-(4-methoxy-5-((3-methoxy-1-(pyrimidin-2-yl)cyclobutyl)carbamoyl)-2-methylphenyl)-N-methylbenzofuran-3-carboxamide], the IC50 in assay [1] was 20 nM. This molecule showed an EC50 in assay [2] of 6.44 nM.

As to `CCCc1cc2oc(-c3ccc(F)cc3)c(C(=O)NC)c2cc1-c1cc(C(=O)NC2(C)CC(OC(F)F)C2)c(OC)cc1C` (single isomer, unassigned) [Example 57a, 5-(5-((3-(Difluoromethoxy)-1-methylcyclobutyl)carbamoyl)-4-methoxy-2-methylphenyl)-2-(4-fluorophenyl)-N-methyl-6-propylbenzofuran-3-carboxamide], in assay [1], the midpoint of inhibition, the IC50, lay at 10 nM. Further, the 50% effective concentration (EC50) in assay [2] (Hepatitis C virus, Huh-7, 72 h) was found to be 50 nM.

Molecule `CNC(=O)c1c(-c2ccc(F)cc2)oc2cc(NCC(F)(F)F)c(-c3cccc(C(=O)NC4(c5ncccn5)CC(OC(F)F)C4)c3)cc12` (single isomer, unassigned) [Example 65a] displayed an IC50 in assay [1] of 4.55 nM. Further, the concentration for a half-maximal effect (EC50) in assay [2] was 8.72 nM.

With `CNC(=O)c1c(-c2ccc(F)cc2)oc2cc(NCC(F)(F)F)c(-c3ccc(OC)c(C(=O)NC4(c5ncccn5)CC(OC(F)F)C4)c3)cc12` (single isomer, unassigned) [Example 64b], in assay [1], the IC50 was 3.97 nM. Further, the 50% effective concentration (EC50) in assay [2] turned out to be 5.97 nM.

In assay [1], `CNC(=O)c1c(-c2ccc(F)cc2)oc2ccc(-c3cc(C(=O)NC4(c5ncccn5)CC(F)C4)c(OC)cc3C)c(F)c12` (centres unmarked) [Example 19, 4-Fluoro-5-(5-(3-fluoro-1-(pyrimidin-2-yl)cyclobutylcarbamoyl)-4-methoxy-2-methylphenyl)-2-(4-fluorophenyl)-N-methylbenzofuran-3-carboxamide] had a half-maximal inhibitory concentration (IC50) of 120 nM. The EC50 in assay [2] (Hepatitis C virus, Huh-7, 72 h) was 5.26 nM.

Regarding `CNC(=O)c1c(-c2ccc(F)cc2)oc2cc(NCC(F)(F)F)c(-c3ccc(OC)c(C(=O)NC4(c5ncccn5)CC(OC(F)F)C4)c3)cc12` (single isomer, unassigned) [Example 64a], it took 3.3 nM to reach half-maximal inhibition in assay [1] (IC50). In assay [2] (Hepatitis C virus, Huh-7, 72 h), this molecule showed a concentration for a half-maximal effect (EC50) of 4.23 nM.

As for `CNC(=O)c1c(-c2ccc(F)cc2)oc2ccc(-c3cc(C(=O)NC4(c5ncccn5)CC(=O)C4)ccc3C)c(F)c12` [Example 6, 4-Fluoro-2-(4-fluorophenyl)-N-methyl-5-(2-methyl-5-((3-oxo-1-(pyrimidin-2-yl)cyclobutyl)carbamoyl)phenyl)benzofuran-3-carboxamide], in assay [1], the 50% inhibitory concentration (IC50) turned out to be 10 nM. The midpoint of the response in assay [2] (Hepatitis C virus, Huh-7, 72 h), the EC50, lay at 20 nM.

For the molecule `CNC(=O)c1c(-c2ccc(F)cc2)oc2ccc(-c3cc(C(=O)NC4(c5ncccn5)CC(OC)C4)ccc3C)c(F)c12` (single isomer, unassigned) [Example 10a, 4-Fluoro-2-(4-fluorophenyl)-5-(5-((3-methoxy-1-(pyrimidin-2-yl)cyclobutyl)carbamoyl)-2-methylphenyl)-N-methylbenzofuran-3-carboxamide], 60 nM corresponded to half-maximal inhibition in assay [1] (IC50). In assay [2], this molecule returned an EC50 of 30 nM.

In the case of `CNC(=O)c1c(-c2ccc(F)cc2)oc2cc(CCC(F)(F)F)c(-c3ccc(F)c(C(=O)NC4(C)CC(OC(F)F)C4)c3)cc12` (single isomer, unassigned) [Example 63b, 5-(3-((3-(Difluoromethoxy)-1-methylcyclobutyl)carbamoyl)-4-fluorophenyl)-2-(4-fluorophenyl)-N-methyl-6-(3,3,3-trifluoropropyl)benzofuran-3-carboxamide], in assay [1], the IC50 turned out to be 3.03 nM. The same molecule displayed an EC50 in assay [2] of 10 nM.

The values above are taken from patent US11161837B2, “Benzofuran derivatives for the treatment of hepatitis C” (BRISTOL-MYERS SQUIBB COMPANY, priority 2016, dated 2021).
